The values that follow come from US20100166662A1, “MAGNETIC RESONANCE IMAGING METHOD USING VANADYL-BASED CONTRAST AGENTS” (The University of Chicago, priority 2006, published 2010).

Bounds are passed on as bounds.

Series [1] relates to 3T3-L1 adipocytes. The series is described as follows: Uptake of 2-deoxy-D-[1-14C]glucose by 3T3-L1 adipocytes. Type of series: cell-based. The method, then:
The effect of vanadyl compounds on uptake of 2-deoxy-D-[1-^14C]glucose by 3T3-L1 adipocytes was measured using methods described in Makinen, M. W., et al., “Structural Origins of the Insulin-Mimetic Activity of Bis(acetylacetonato)oxovanadium(IV),” J. Biol. Chem. 277 (2002) pp. 12215-12220, which is incorporated herein by reference. Serum-starved, differentiated […] adipocytes were used in the metabolic assays. Cells were washed twice with phosphate-buffered isotonic saline at 37° C. and serum-starved for 2.5 hours in Krebs-Ringer buffer lacking bovine serum albumin or serum. The medium was removed, and cells were incubated for 30 minutes in buffer with different concentrations of VO^2+-based contrast agents with or without serum albumin (1 mM) prior to measuring glucose uptake rates. Glucose transport rates were measured by the addition of 20 μM 2-deoxy-D-[1-^14C] glucose.

The subject of series [2] is p-AKT. Briefly: Cell signaling study, Western blot of p-AKT in Caco-2 and HCA-7 cells. Type of series: cell-based, human. The conditions noted are these: 5 min; for level of p-AKT compared to controls: Caco-2 and HCA-7 cells. The method, then:
(§1) HCA-7 and Caco-2 cells derived from human colonic adenocarcinomas obtained from the American Type Culture Collection, Manassas, Va. were cultured at 37° C. in a humidified atmosphere of 5% CO2-95% air in 6-well plates (250,000 cells/well/2 mL in 5% serum medium). When cells were ˜70-80% confluent, cells were transferred to serum-free media and kept overnight. A vanadyl compound was added to a well to a final concentration of 100, 250, or 500 μM and incubated for 5 minutes. In each 6-well plate, 2 wells were set as controls and 4 wells were set for one desired concentration of a vanadyl compounds. Cells were then homogenized in 2× Laemmli sodium dodecyl sulfate (SDS) buffer. Samples were boiled for 5 minutes at 100° C. and proteins quantified using the RC-DC protein assay (Bio-Rad). Western blotting was then carried out, briefly described as follows. SDS-treated samples (50 μg/lane) were separated by SDS-polyacrylamide gel electrophoresis (PAGE) on a 4-15% resolving gel. Pre-stained molecular weight markers were included in each gel. Gels were electroblotted to immobilon-P transfer membranes (Millipore Billerica, Mass.). Following blocking of non-specific antibody binding, the blots were exposed to rabbit polyclonal anti-pAKT (Cell Signaling Technology, Danvers, Mass.) or mouse monoclonal anti-pERK (Santa Cruz Biotechnology, Inc., Santa Cruz, Calif.) and developed with secondary antibody using standard methods. The blots were washed, and the p-AKT and p-ERK were detected in film and digitized for final quantification.
FIG. 3 illustrates two Western blots of p-AKT using Caco-2 (left panel) and HCA-7 cells (right panel) treated with VO(acac)2 in a concentration of 100, 250 or 500 μM (top, middle and bottom rows, respectively). Lane 1 is the control; lanes 2 and 3 are duplicates of cells exposed to VO(acac)2 a particular concentration of VO(acac)2. These blots were analyzed by […] on X-OMAT™ autoradiogram films using an enhanced chemiluminesence system.

The test system of series [3] is p-ERK. The series is described as follows: Cell signaling study, Western blot of p-ERK in Caco-2 and HCA-7 cells. Type of series: cell-based, human. The conditions noted are these: 100, 250 or 500 μM, 5 min. The method, then: as §1, with “Following blocking of non-specific antibody binding, the blots were exposed to rabbit polyclonal anti-pAKT (Cell Signaling Technology, Danvers, Mass.) or mouse monoclonal anti-pERK (Santa Cruz Biotechnology, Inc., Santa Cruz, Calif.) and developed with secondary antibody using standard methods.” left out

The nature of series [4]: T1 relaxivity of the contrast agent in buffer. Format: physicochemical. The following applies: 0.01 M HEPES buffer pH 7.4 with 0.15 M NaCl; 4.7 Tesla. As for the experimental part:
The T1 relaxation times of VO(acac)2 in 0.01 M HEPES buffer at pH 7.4 with 0.15 M NaCl were determined. With the determined T1 values at different concentrations of VO(acac)2, the relaxivity was determined using equation 1,
where T1m is the measured T1 for VO(acac)2, T1w is the T1 for water, C is the concentration of the contrast agent, and r1 is the relaxivity. The relaxivity for VO(acac)2 of 2.5±0.2 mM^−1s^−1 is slightly lower but close to that of known contrast agents of gadolinium complexes of 4.3±0.2 mM^−1s^−1 at 4.7 Tesla. This means that VO(acac)2 can produce significant, easily detectable changes in MR image intensity.

Series [5] can be described thus: Toxicity study in tumor-bearing nude mice (blood parameters, i-STAT). Format: in vivo. The conditions noted are these: 1 mmol/kg via tail vein, monitored over three days, mice bearing AT6.1 tumor. The method, then:
Toxicity studies were performed with tumor-bearing nude mice weighing about 25-30 grams (n=5). An AT6.1 prostate tumor was implanted subcutaneously in the hind limb of the mouse. 1 mmol/kg of VO(acac)2 was administered through a catheter placed in the tail vein. The VO(acac)2 was dissolved in dimethyl sulfoxide and the resulting solution was diluted with saline. The final concentration of DMSO was about 5% by volume. The solution was about 10 mM VO(acac)2.
The pH, pCO2, HCO3^−, TCO2, serum O2, Na^+, K^+, Ca^2+, glucose, blood urea nitrogen (BUN), Hematocrit (Hct) and hemoglobin (Hb) were monitored using an i-STAT analyzer (East Windsor, N.J.) by taking ˜30 μL blood samples over a period of three days.

For series [6], the system named is AT6.1 prostate tumor. Briefly: In vivo MRI and contrast media dynamics in rats bearing AT6.1 tumors. Also noted: species or system Copenhagen rat. The conditions noted are these: rat. As for the experimental part: MRI studies were performed using a 4.7 Tesla Bruker scanner with multi-slice echo-planner spectroscopic imaging (EPSI). The scanning parameters were as follows: TR/TE of 800/80 msec; field of view 40 mm; array size of 256×256; slice thickness of 0.5 mm; and, an average of 1.
First, high-resolution reference images were acquired by conventional spin echo and gradient echo pulse sequences using multiple slices. These reference images provided anatomic reference information and were used to accurately measure tumor volume. Then multi-slice (usually 3 slices) echo-planner spectroscopic imaging (EPSI) with repetition time (TR) of 800 msec and echo time (TE) of 80 msec were acquired. Acquisition of MRI data using high-resolution EPSI pulse sequence may also be used. These sequence images were acquired with spatial resolution of 200 micron in-plane in ˜500 micron slices and spectral resolution of 2 Hz. These images were acquired at the same spatial resolution as conventional images but provided increased sensitivity to contrast media effects.
A Dunning AT6.1 prostate tumor was implanted subcutaneously in the hind limb of a Copenhagen rat. The tumor was monitored and imaging began when the tumor reached a size of 5-10 mm. The VO^2+-based contrast agent was dissolved in dimethyl sulfoxide and the resulting solution was diluted with saline. The final concentration of DMSO was about 5% by volume. The solution was about 10 mM VO^2+-based contrast agent.
After 6 to 8 pre-contrast MR images were obtained as a reference, 0.15 mmol/kg of VO(acac)2 was injected through a catheter placed in the tail vein of the rat over 5 minutes. During MR imaging, the rats were anesthetized using isofluorane mixed with air and oxygen flowing through a mask. Exhaust gases were eliminated through an F-Air canister attached to the mask set up. Temperature was monitored continuously by a rectal thermometer and controlled with a warm water blanket. Heart rate, respiration rate, and blood pressure were monitored using an optical detector system from SA Instruments (Stony Brook, N.Y.). To minimize motion artifacts, rats were wrapped in co-flex and taped to a Plexiglass board. The leg was secured through the coil in a plastic tube and taped to the cradle.
Post-contrast EPSI scans were acquired for about 4 hours. Each EPSI scan took about 3.5 minutes. Images were used in which the intensity was proportional to the peak height of the water resonance in each voxel. […]
0.15 mmol/kg of VO(acac)2 was injected through a catheter placed in the tail vein of the rat over 5 minutes. […] Temperature was monitored continuously by a rectal thermometer and controlled with a warm water blanket. Heart rate, respiration rate, and blood pressure were monitored using an optical detector system from SA Instruments (Stony Brook, N.Y.). […]

For series [7], the system named is AT6.1 prostate tumors. Briefly: Vanadyl concentration in tumor and muscle tissue by atomic absorption spectroscopy. The conditions noted are these: at 5 hours after about 0.15 mmol/kg i.v., mice. Type of series: in vivo, nude mice. The method, then: AT6.1 prostate tumors were implanted subcutaneously in the hind limbs of nude mice. The tumors were monitored and allowed to grow to about 6-8 mm over a period of about 2 weeks. The VO^2+-based contrast agent was dissolved in dimethyl sulfoxide and the resulting solution was diluted with saline. The final concentration of DMSO was about 5% by volume. The solution was about 10 mM VO^2+-based contrast agent. VO(acac)2 was added slowly to the tail vein of each mouse using a syringe infusion pump (Harvard Apparatus, South Natick, Mass.). A total of 100 μL of solution were added in 5 minutes (flow rate=20 μL/minute) for a total dosage of about 0.15 mmol/kg. All mice were kept in a cage and monitored after injection. The mice were then sacrificed at various times. Tissue samples of the tumors and muscles were removed after a mouse was sacrificed. The tissue samples were weighed and then digested by wet digestion using H2O2 and HNO3. Atomic absorption measurements were carried out using Perkin Elmer AAnalyst 300 with an HGA 800 furnace. Control sets (n=3) were free of contrast agent. Measurements were based on standard curves of known vanadyl concentration with a correlation coefficient of 0.99820.

The nature of series [8]: Solubility in aqueous solutions at physiological pH. Format: physicochemical. The method, then:
Bis(acetylamido)oxovanadium(IV) [VO(acac-NH2)2]. VO(acac-NH2)2 was synthesized according to the procedure described by Crans et al., “Bis(acetylamido)oxovanadium(IV) Complexes: Solid State and Solution Studies,” J. Chem. Soc. Dalton Trans. (2001) pp. 3337-3345. One equivalent of vanadyl sulfate was dissolved in water followed by the addition of 3-equivalents of acetoacetamide under constant stirring. A solution of 10% sodium bicarbonate was then added dropwise to raise the pH from 1.5 to 3.6 in order to form a suspension. A bluish precipitate was obtained after allowing the solution to stand for one day at 4° C. The precipitate was filtered off, washed with a small amount of chloroform, and dried under vacuum.
Bis(acetylacetanato-bisNH2)oxovanadium(IV) [VO(acac-(NH2)2)2]. VO(acac-(NH2)2)2 is synthesized as follows. One equivalent of vanadyl sulfate is dissolved in water followed by the addition of 3 equivalents of malonamide under constant stirring. A solution of 10% sodium bicarbonate is then added dropwise to raise the pH in order to form a suspension. A bluish precipitate is obtained after standing the solution for one day at 4° C. The precipitate is filtered off, washed with a small amount of chloroform, and dried under vacuum.

Setting [9] is: 0.15 mmol/kg i.v. over 5 minutes, AT6.1 tumor.

For the molecule `Cc1occc(=O)c1[O-].Cc1occc(=O)c1[O-].[O]=[V+2]` [VO(malto)2, Bis(maltolato)oxovanadium(IV)], in series [1] (data not shown), the “dependence of increase in glucose uptake on compound:serum albumin ratio” value is given as “no clear dependence”; the “enhancement of glucose uptake per equivalent of VO2+ compared with VO(acac)2 and VO(OPT)2” value is listed as “markedly less”. In series [1] (with or without 1 mM serum albumin, data not shown), the “glucose uptake (effect in words)” value is reported as “facilitate glucose uptake”.
For `O=S(=O)([O-])[O-].[O]=[V+2]` [VOSO4, vanadyl sulfate, reference compound], in series [2] (100, 250 or 500 μM), the “activation of p-AKT (in words)” value is “did not induce measurable activation”. The “activation of p-ERK (in words)” value in series [3] was “did not induce measurable activation”.
On to “Bis(acetylacetonato)oxovanadium(IV) [VO(acac)2]”, for which, in series [4], the “relaxivity r1” value was 2.5 ± 0.2 mM⁻¹ s⁻¹. In addition, the uptake of glucose result in series [1] (in the presence of equimolar concentrations of serum albumin, 30 min incubation) is on record as “maximally enhanced”. Moreover, the “level of p-AKT compared to controls” value in series [2] (100 μM) amounted to 2 fold; in series [2] (250 μM) it was 5 fold; in series [2] (500 μM), 12 fold. In addition, the “blood pH, pCO2, HCO3−, TCO2, serum O2, Na+, K+, Ca2+, glucose, BUN, Hct, Hb” value in series [5] is “fell within the normal range”. Further, the “MR signal enhancement in tumor regions, often as high as” value in series [6] (setting [9]) is at most 100%. Moreover, in series [6] (setting [9]), the “MR signal enhancement in tumor regions, typical” value was “greater than 50%”. Moreover, the “enhancement in muscle for a long time after injection” value in series [6] (0.15 mmol/kg i.v.) is recorded as “relatively little enhancement in muscle”. The “T1 and T2* contrast” value in series [6] (0.15 mmol/kg i.v., 4.7 Tesla) is “excellent T1 and T2* contrast”. Moreover, the “vanadyl concentration in tumor tissue” value in series [7] is “remained relatively high”.
Turning to “Bis(acetylamido)oxovanadium(IV) [VO(acac-NH2)2]”, the “solubility in aqueous solutions” value in series [8] is “completely soluble”.
